Source: US5985908A, “MCBI analogs of CC-1065 and the duocarmycins” (The Scripps Research Institute, priority 1998, dated 1999)

Key:
[1] = tested on: duplex DNA (w794, w836, c988, c820); assay: DNA alkylation selectivity within four 150 base-pair segments of duplex DNA; assay type: biochemical, SV40
From the text: (§1) The DNA alkylation properties of the agents were examined within four 150 base-pair segments of duplex DNA for which comparative results are available for related agents. Four clones of phage M13mp10 were selected for study and contain the SV40 nucleosomal DNA inserts w794 (nucleotide no. 5238-138) and its complement w836 (nucleotide no. 5189-91) and c988 (nucleotide no. 4359-4210) and its complement c820 (nucleotide no. 4201-4356). The alkylation site identification and the assessment of the relative selectivity among the available sites were obtained by thermally-induced strand cleavage of the singly 5'end-labeled duplex DNA after exposure to the agents. Following treatment of the end-labeled duplex DNA with a range of agent concentrations, the unbound agent was removed by EtOH precipitation of the DNA. Redissolution of the DNA in aqueous buffer, thermolysis (100° C., 30 minutes) to induce strand cleavage at the sites of DNA alkylation, denaturing high resolution polyacrylamide gel electrophoresis (PAGE) adjacent to Sanger dideoxynucleotide sequencing standards, and autoradiography led to identification of the DNA cleavage and alkylation sites. The full details of this procedure have been disclosed and discussed elsewhere (10). The DNA alkylation reaction selectivities observed under the incubation conditions of 25° C. (24 hours) for the agents detailed herein have proven identical to the alkylation selectivities observed with shorter or extended reaction periods or when the reactions were conducted at different temperatures (37 or 4° C., 0.5-7 days). As discussed below, the rates and efficiencies but not final relative efficiencies of DNA alkylation were altered by changing the reaction temperatures.

[2] = tested on: w794 DNA (SV40 DNA fragment, 144 bp); assay: DNA alkylation, thermally-induced strand cleavage of w794 DNA; assay type: biochemical; conditions: for selectivity and efficiency of DNA alkylation, natural enantiomers compared: 25° C., 24 hours, 254 vs 2, 266 vs 1; for concentration of detectable DNA alkylation, natural enantiomers: w794, 25° C., 24 hours (FIG. 17); for concentration of detectable DNA alkylation, unnatural enantiomers: 72 hours (FIG. 13)
Protocol: FIG. 13 illustrates thermally-induced strand cleavage of double-stranded DNA (SV40 DNA fragment, 144 bp, nucleotide no. 5238-138, clone w794) after 72 hours incubation of agent-DNA at 37° C. followed by removal of unbound agent and 30 minutes incubation at 100° C.; 8% denaturing PAGE and autoradiography. Lane 1, control DNA; lanes 2-4, (-)-MCBI-TMI (254, 1×10^-5 to 1×10^-7 M); lanes 5-7, (-)-duocarmycin SA (2, 1×10^-5 to 1×10^-7 M); lanes 8-11, Sanger G, C, A and T reactions; lanes 12-14, (-)-CC-1065 (1, 1×10^-5 to 1×10^-7 M); lanes 15-17, (-)-MCBI-CDPI2 (266, 1×10^-5 to 1×10^-7 M); lanes 18-20, (-)-MCBI-CDPI1 (262, 1×10^-5 to 1×10^-7 M); lanes 21-23 (-)-MCBI-indole2 (258, 1×10^-5 to 1×10^-7 M).
As indicated, the DNA-agent incubation was conducted at 37° C. for 24 or 48 hours, followed by removal of unbound agent and 30 minutes incubation at 100° C.; 8% denaturing PAGE and autoradiography.
FIG. 17 illustrates thermally-induced strand cleavage of double-stranded DNA (SV40 DNA fragment, 144 bp, nucleotide no. 5238-138, clone w794) after 24 hours incubation of agent-DNA at 25° C. followed by removal of unbound agent and 30 minutes incubation at 100° C; 8% denaturing PAGE and autoradiography. Lane 1, control DNA; lanes 2-4, (+)-duocarmycin SA (2, 1×10^-5 to 1×10^-7 M); lanes 5-7, (+)-MCBI-TMI (254, 1×10^-5 to 1×10^-7 M); lanes 8-11, Sanger G, C, A and T reactions; lanes 12-14, (+)-CC-1065 (1, 1×10^-5 to 1×10^-7 M); lanes 15-17, (+)-MCBI-indole2 (258, 1×10^-5 to 1×10^-7 M); lanes 18-20, (+)-MCBI-CDPI2 (266, 1×10^-5 to 1×10^-7 M).
as §1

[3] = tested on: w794 5'-AATTA high affinity site; assay: Relative rate of w794 alkylation at the 5'-AATTA high-affinity site; assay type: biochemical, SV40; conditions: 10^-6 M; for relative rate of DNA alkylation k(254):k(CBI-TMI):k(2): 4° C., 0-48 hours
Protocol: FIG. 15 illustrates a plot of percent integrated optical density (% IOD) versus time established through autoradiography of 5'-^32 P and labeled DNA and used to monitor the relative rate of w794 alkylation at the 5'-AATTA high-affinity site for 1, 254, 258, (+)-CBI-TMI and (+)-DSA-indole2.
Representative of this difficulty in detecting distinguishing relative rates for the three classes of agents, a similar rate comparison of (+)-DSA-indole2 and (+)-MCBI-indole2 (258) conducted at 25° C. […] In sharp contrast, all three kinetically alkylate DNA much faster than the corresponding CPI-based agent (10-50×) where the distinctions are much more pronounced and easily experimentally distinguished.

L1210 = assay: In vitro cytotoxic activity; assay type: cell-based; conditions: for cytotoxic potency of natural enantiomer relative to unnatural enantiomer: fold, natural more potent than unnatural; for enantiomer distinction (in words): natural vs unnatural enantiomer
[4] = Solvolysis reactivity (UV), aqueous buffer-CH3OH; assay type: physicochemical; conditions: pH 7, 1:1 H2O-CH3OH
[5] = Solvolysis reactivity (UV), aqueous buffer-CH3OH; assay type: physicochemical
Protocol: The solvolysis was followed spectrophotometrically by UV with the disappearance of the long-wavelength absorption band of the MCBI chromophore ([…]) and with the appearance of a short-wavelength absorption band (266 nm) attributable to seco-N-BOC-MCBI (FIG. 9).
N-BOC-MCBI (238, 0.1 mg) was dissolved in CH3 OH (1.5 mL) and mixed with pH 3 aqueous buffer (1.5 mL). The buffer contained 4:1:20 (v:v:v) 0.1 M citric acid, 0.2 M Na2 HPO4, and H2 O, respectively. The solvolysis solution was sealed and kept at 25° C. protected from light. The UV spectrum was measured at regular intervals every 2 hours during the first day, every 12 hours for another week, and every 24 hours for an additional week. The decrease in the long-wavelength absorption at 324 nm and the increase in the short-wavelength absorption at 266 nm were monitored, FIG. 1.
Similarly, MCBI (240, 0.1 mg) was dissolved in CH3 OH (1.5 mL) and mixed with […] (1.5 mL). The solvolysis solution was sealed and stirred at 25° C. in the dark. The UV spectrum was recorded every 24 hours for two months. The decrease in the long-wavelength absorption at 340 nm and the increase in absorption at 268 nm were monitored, FIG. 1.

[6] = tested on: w794 DNA (SV40 DNA fragment, 144 bp); conditions: cited from earlier work

SMILES: COc1c(O)c2c(c3cc(C(=O)N4CCc5c4c(O)c(OC)c4[nH]c(C(=O)N6C[C@H]7C[C@@]78C6=CC(=O)c6[nH]cc(C)c68)cc54)[nH]c13)CCN2C(N)=O [(+)-CC-1065, reference compound]
- AT-rich alkylation selectivity, size of site, natural enantiomers [1]: 5 base-pair
- selectivity and efficiency of DNA alkylation, natural enantiomers compared [2]: essentially indistinguishable
- concentration of detectable DNA alkylation, natural enantiomers [2]: 10^-7 M

SMILES: COC(=O)c1cc2c([nH]1)C(=O)C=C1N(C(=O)c3cc4cc(OC)c(OC)c(OC)c4[nH]3)CC3CC123 (single isomer, unassigned; (+)) [(+)-duocarmycin SA, reference compound]
- AT-rich alkylation selectivity, size of site, natural enantiomers [1]: 3.5 base-pair
- selectivity and efficiency of DNA alkylation, natural enantiomers compared [2]: indistinguishable
- concentration of detectable DNA alkylation, natural enantiomers [2]: 10^-6 to 10^-7 M
- concentration of detectable DNA alkylation, unnatural enantiomers ([2]; w794, 37° C.): 10^-5 M
- relative rate of DNA alkylation k(254):k(CBI-TMI):k(2) [3]: 0.9

SMILES: COc1ccc2c(c1)C13CC1CN(C(=O)c1cc4c5c(ccc4[nH]1)N(C(N)=O)CC5)C3=CC2=O (stereo not shown) [Compound 262]
- cytotoxic potency of natural enantiomer relative to unnatural enantiomer (L1210): 1-3 ×
- enantiomer distinction (in words) (L1210): essentially indistinguishable
- enantiomer distinction (in words) (L1210; listed as MCBI-CDPI1): nearly equipotent
- AT-rich alkylation selectivity, size of site, natural enantiomers [1]: 3.5 base-pair

SMILES: COc1cc2cc(C(=O)N3C[C@H]4C[C@@]45C3=CC(=O)c3ccccc35)[nH]c2c(OC)c1OC [(+)-CBI-TMI]
- relative rate of DNA alkylation k(254):k(CBI-TMI):k(2) [3]: 1.0

SMILES: COc1ccc2c(c1)C13CC1CN(C(=O)c1cc4cc(OC)c(OC)c(OC)c4[nH]1)C3=CC2=O (stereo not shown) [Compound 254]
- enantiomer distinction (in words) (L1210; listed as MCBI-TMI): analogous distinctions but somewhat smaller than those observed with CBI-TMI
- AT-rich alkylation selectivity, size of site, natural enantiomers [1]: 3.5 base-pair
- concentration of detectable DNA alkylation, unnatural enantiomers ([2]; w794, 37° C.): 10^-5 M

SMILES: COc1ccc2c(c1)[C@@]13C[C@@H]1CN(C(=O)c1cc4cc(OC)c(OC)c(OC)c4[nH]1)C3=CC2=O [(+)-MCBI-TMI]
- cytotoxic potency of natural enantiomer relative to unnatural enantiomer (L1210): 50 ×
- selectivity and efficiency of DNA alkylation, natural enantiomers compared [2]: indistinguishable
- concentration of detectable DNA alkylation, natural enantiomers [2]: 10^-6 to 10^-7 M
- relative rate of DNA alkylation k(254):k(CBI-TMI):k(2) [3]: 1.8

SMILES: COc1ccc2c(c1)C13CC1CN(C(=O)OC(C)(C)C)C3=CC2=O (stereo not shown) [Compound 238, N-(tert-Butyloxycarbonyl)-7-methoxy-1,2,9,9a-tetrahydrocyclopropa[c]benz[e]indol-4-one]
- evidence of solvolysis at pH 7 [4]: did not show evidence of solvolysis
- acceleration of rate of solvolysis by C7 methoxy group vs. corresponding CBI agent ([5]; acid-catalyzed solvolysis, pH 3): 1.6 ×
- half-life relative to parent agent N-BOC-CBI (4) ([5]; pH 3): 0.6 times
- solvolysis rate constant k ([5]; pH 3, 50% CH3OH-buffer, 25° C.): 2.41e-06 s⁻¹
- half-life ([5]; pH 3, 50% CH3OH-buffer, 25° C., read-out: solvolysis half-life t1/2 (converted)): 80 h
- alkylation selectivity of N-BOC-MCBI ([2]; both enantiomers, two base-pair AT-rich selectivity): 5'-AA>5'-TA
- DNA alkylation efficiency relative to 257-266 ([2]; fold less efficient, both enantiomers): 10^4 ×
- concentration of detectable DNA alkylation, two enantiomers of N-BOC-MCBI ([2]; w794, 37° C., 24-48 hours (FIG. 16)): 10^-2 to 10^-3 M

SMILES: COc1cc2cc(C(=O)N3C[C@@H]4C[C@]45C3=CC(=O)c3ccccc35)[nH]c2c(OC)c1OC [(-)-CBI-TMI]
- DNA alkylation distinction between (-)-CBI-TMI and ent-(-)-duocarmycin SA ([6]; prior comparison): 10 ×

SMILES: CC(C)(C)OC(=O)N1C[C@H]2C[C@@]23C1=CC(=O)c1ccccc13 [(+)-N-BOC-CBI]
- relative efficiency of DNA alkylation, natural/unnatural enantiomer (earlier agent) ([6]; (+)-N-BOC-CBI/ent-(-)-N-BOC-CBI): 5-10 ×

SMILES: COC(=O)c1cc2c([nH]1)C(=O)C=C1N(C(=O)c3cc4cc(NC(=O)c5cc6ccccc6[nH]5)ccc4[nH]3)C[C@H]3C[C@]123 [(+)-DSA-indole2]
- relative rate k(DSA-indole2)/k(MCBI-indole2) ([3]; 25° C., 0-24 hours): 1.05
